According to patent US10758534B2 (Vertex Pharmaceuticals Incorporated, priority 2014, dated 2020):

Target: T1, F508del (Homo sapiens, UniProt P13569, DEL508-508)
T1 construct: expressed in transfected cells
Experiment: Protocol 1: membrane potential optical assay (FLIPR III, voltage sensing dye), identification of potentiator compounds
Assay type: cell-based
Details: Table 3, compounds of Table 1
Method in brief: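 Read-out: change in voltage-sensing dye fluorescence (FLIPR III) as a measure of F508del conductance. Temperature-corrected (27° C, 24 hrs) NIH 3T3 cells expressing F508del are pretreated with potentiators, dye-loaded, then stimulated with forskolin under a chloride ion gradient using chloride-free gluconate bath.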

T1 sequence (P13569 with tags, fused parts or gaps DEL508-508): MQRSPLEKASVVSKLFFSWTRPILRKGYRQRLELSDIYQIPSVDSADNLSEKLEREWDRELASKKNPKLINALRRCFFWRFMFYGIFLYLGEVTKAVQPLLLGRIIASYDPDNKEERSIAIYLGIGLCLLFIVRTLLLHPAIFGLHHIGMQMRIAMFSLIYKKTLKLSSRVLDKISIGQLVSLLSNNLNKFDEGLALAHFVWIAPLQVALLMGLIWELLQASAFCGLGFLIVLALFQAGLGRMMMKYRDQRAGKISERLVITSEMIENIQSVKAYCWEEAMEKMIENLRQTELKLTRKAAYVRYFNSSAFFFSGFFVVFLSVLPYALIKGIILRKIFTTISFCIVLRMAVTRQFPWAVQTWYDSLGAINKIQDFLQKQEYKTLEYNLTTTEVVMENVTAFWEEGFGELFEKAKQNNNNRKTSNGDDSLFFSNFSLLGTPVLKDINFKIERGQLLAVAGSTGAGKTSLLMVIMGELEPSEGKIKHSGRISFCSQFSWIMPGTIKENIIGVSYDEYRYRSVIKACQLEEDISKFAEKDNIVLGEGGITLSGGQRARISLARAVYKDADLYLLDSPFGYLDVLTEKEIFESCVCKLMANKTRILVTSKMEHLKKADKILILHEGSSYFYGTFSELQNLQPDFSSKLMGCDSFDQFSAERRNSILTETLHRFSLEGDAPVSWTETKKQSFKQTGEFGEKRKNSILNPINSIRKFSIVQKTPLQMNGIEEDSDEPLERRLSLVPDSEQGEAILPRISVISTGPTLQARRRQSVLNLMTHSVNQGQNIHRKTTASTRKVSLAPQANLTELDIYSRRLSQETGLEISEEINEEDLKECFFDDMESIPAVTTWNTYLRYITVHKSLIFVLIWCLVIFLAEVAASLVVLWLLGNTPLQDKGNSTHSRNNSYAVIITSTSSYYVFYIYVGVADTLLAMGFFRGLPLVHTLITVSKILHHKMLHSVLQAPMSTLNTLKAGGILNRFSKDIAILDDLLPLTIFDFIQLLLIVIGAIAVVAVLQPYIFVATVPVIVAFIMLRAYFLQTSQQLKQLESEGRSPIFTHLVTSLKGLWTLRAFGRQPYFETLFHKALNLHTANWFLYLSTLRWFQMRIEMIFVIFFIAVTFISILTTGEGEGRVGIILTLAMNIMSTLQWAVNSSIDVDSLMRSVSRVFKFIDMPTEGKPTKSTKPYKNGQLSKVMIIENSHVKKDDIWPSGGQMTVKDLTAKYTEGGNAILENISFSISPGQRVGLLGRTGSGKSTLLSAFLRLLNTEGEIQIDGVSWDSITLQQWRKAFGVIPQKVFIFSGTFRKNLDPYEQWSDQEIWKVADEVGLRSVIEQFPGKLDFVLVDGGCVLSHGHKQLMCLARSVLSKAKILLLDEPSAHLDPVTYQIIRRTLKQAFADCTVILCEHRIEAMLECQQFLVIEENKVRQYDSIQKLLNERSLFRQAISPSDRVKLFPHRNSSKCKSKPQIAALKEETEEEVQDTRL

SMILES	EC30
CC(C)Oc1ccc(-c2ccc(C(=O)NS(=O)(=O)c3cccc(N)n3)c(N3CCC4(CC3)OCc3ccccc34)n2)cn1 [Compound 818, N-[(6-amino-2-pyridyl)sulfonyl]-6-(6-isopropoxy-3-pyridyl)-2-spiro[1H-isobenzofuran-3,4′-piperidine]-1′-yl-pyridine-3-carboxamide]	+++ (“+++” means <3 uM)
CC(C)COc1cc(F)cc(-c2ccc(C(=O)NS(=O)(=O)c3cccc(N)n3)c(O[C@@H]3C[C@H]4CC[C@@H]3C4)n2)c1 [Compound 1216, N-[(6-amino-2-pyridyl)sulfonyl]-6-(3-fluoro-5-isobutoxy-phenyl)-2-[(1R,2R,4S)-norbornan-2-yl]oxy-pyridine-3-carboxamide]	+++ (“+++” means <3 uM)
CC(C)COc1cc(F)cc(-c2ccc(C(=O)NS(=O)(=O)N3CC4C[C@H]3CO4)c(N3C[C@@H](C)CC3(C)C)n2)c1 [Compound 1789, 6-(3-fluoro-5-isobutoxy-phenyl)-N—[[(4S)-2-oxa-5-azabicyclo[2.2.1]heptan-5-yl]sulfonyl]-2-[(4S)-2,2,4-trimethylpyrrolidin-1-yl]pyridine-3-carboxamide]	+++ (“+++” means <3 uM)
CC(C)Oc1ccc(-c2ccc(C(=O)NS(=O)(=O)c3cccc(N)n3)c(N3CCCCCC3)n2)cn1 [Compound 940, N-[(6-amino-2-pyridyl)sulfonyl]-2-(azepan-1-yl)-6-(6-isopropoxy-3-pyridyl)pyridine-3-carboxamide]	+++ (“+++” means <3 uM)
CC(C)COc1cc(F)cc(-c2ccc(C(=O)NS(=O)(=O)N3CCC(F)(F)C3)c(N3C[C@@H](C)CC3(C)C)n2)c1 [Compound 1956, N-(3,3-difluoropyrrolidin-1-yl)sulfonyl-6-(3-fluoro-5-isobutoxy-phenyl)-2-[(4S)-2,2,4-trimethylpyrrolidin-1-yl]pyridine-3-carboxamide]	+++ (“+++” means <3 uM)

Further lines, results first:

EC30	SMILES
+++ (“+++” means <3 uM)	Cc1cc(Cl)cc(-c2cnc(N3CC(C)CC3(C)C)c(C(=O)NS(=O)(=O)c3cccc(N)n3)c2)c1 (centres unmarked) [Compound 1963, N-[(6-amino-2-pyridyl)sulfonyl]-5-(3-chloro-5-methyl-phenyl)-2-(2,2,4-trimethylpyrrolidin-1-yl)pyridine-3-carboxamide]
+++ (“+++” means <3 uM)	CCc1cccc(-c2ccc(C(=O)NS(=O)(=O)c3cccc(N)n3)c(Oc3c(C)cc(C)cc3C)n2)c1 [Compound 1118, N-[(6-amino-2-pyridyl)sulfonyl]-6-(3-ethylphenyl)-2-(2,4,6-trimethylphenoxy)pyridine-3-carboxamide]
+++ (“+++” means <3 uM)	Cc1cc(C)c(Oc2nc(OC(C)C)ccc2C(=O)NS(=O)(=O)c2cccc(N)n2)c(C)c1 [Compound 968, N-[(6-amino-2-pyridyl)sulfonyl]-6-isopropoxy-2-(2,4,6-trimethylphenoxy)pyridine-3-carboxamide]
+++ (“+++” means <3 uM)	CC(=O)Nc1ncccc1S(=O)(=O)NC(=O)c1ccc(-c2ccc(OC(C)C)nc2)nc1N1C[C@@H](C)CC1(C)C [Compound 1976, N-[(2-acetamido-3-pyridyl)sulfonyl]-6-(6-isopropoxy-3-pyridyl)-2-[(4S)-2,2,4-trimethylpyrrolidin-1-yl]pyridine-3-carboxamide]
+++ (“+++” means <3 uM)	CC(C)Oc1ccc(-c2ccc(C(=O)NS(=O)(=O)c3cccc(N)n3)c(N3CCC[C@H]3C)n2)cn1 [Compound 1354, N-[(6-amino-2-pyridyl)sulfonyl]-6-(6-isopropoxy-3-pyridyl)-2-[(2R)-2-methylpyrrolidin-1-yl]pyridine-3-carboxamide]
+++ (“+++” means <3 uM)	CC(C)Oc1ccc(-c2ccc(C(=O)NS(=O)(=O)c3cccnc3N)c(N3C[C@H](C)CC3(C)C)n2)cn1 [Compound 1240, N-[(2-amino-3-pyridyl)sulfonyl]-6-(6-isopropoxy-3-pyridyl)-2-[(4R)-2,2,4-trimethylpyrrolidin-1-yl]pyridine-3-carboxamide]
